In patent US20110092544A1, “FUNGICIDAL PYRIDINES” (E.I. DU PONT DE nemours and company, priority 2008, published 2011):

What was measured:
Format in all cases: in vivo
[1] = tested on: Erysiphe graminis f. sp. tritici; assay: Test A: wheat powdery mildew, preventive spray on wheat seedlings, visual disease rating
From the text: (§1) General protocol for preparing test suspensions for Tests A-H: The test compounds were first dissolved in acetone in an amount equal to 3% of the final volume and then suspended at the desired concentration (in ppm) in acetone and purified water (50/50 mix) containing 250 ppm of the surfactant Trem® 014 (polyhydric alcohol esters). The resulting test suspensions were then used in tests A-H. Spraying a 200 ppm test suspension to the point of run-off on the test plants was the equivalent of a rate of 500 g/ha.
The test suspension was sprayed to the point of run-off on wheat seedlings. The following day the seedlings were inoculated with a spore dust of Erysiphe graminis f. sp. tritici (the causal agent of wheat powdery mildew) and incubated in a growth chamber at 20° C. for 8 days, after which time disease ratings were visually made.
(§2) Results for Tests A-H are given in Table A. In the table, a rating of 100 indicates 100% disease control and a rating of 0 indicates no disease control (relative to the controls). A dash (-) indicates no test results. All results are for compounds tested at 200 ppm except where the compound number is followed by “*” which indicates the compound was tested at 40 ppm.

Botrytis cinerea = assay: Test F: tomato botrytis, preventive spray on tomato seedlings, visual disease rating
From the text: as §1
The test suspension was sprayed to the point of run-off on tomato seedlings. The following day the seedlings were inoculated with a spore suspension of Botrytis cinerea (the causal agent of tomato botrytis) and incubated in saturated atmosphere at 20° C. for 48 h, and then moved to a growth chamber at 24° C. for 3 additional days, after which time disease ratings were visually made.
as §2

[2] = tested on: Puccinia recondite f. sp. tritici; assay: Test B: wheat leaf rust, preventive spray on wheat seedlings, visual disease rating
From the text: as §1
(§3) The test suspension was sprayed to the point of run-off on wheat seedlings. The following day the seedlings were inoculated with a spore suspension of Puccinia recondite f. sp. tritici (the causal agent of wheat leaf rust) and incubated in a saturated atmosphere at 20° C. for 24 h, and then moved to a growth chamber at 20° C. for 7 days, after which time disease ratings were visually made.
as §2

Septoria nodorum = assay: Test D: wheat glume blotch, preventive spray on wheat seedlings, visual disease rating
From the text: as §1
as §3, with “Septoria nodorum” for “Puccinia recondite f. sp. tritici”, “glume blotch)” for “leaf rust)”, “48” for “24”
as §2

Alternaria solani = assay: Test E: tomato early blight, preventive spray on tomato seedlings, visual disease rating
From the text: as §1
The test suspension was sprayed to the point of run-off on tomato seedlings. The following day the seedlings were inoculated with a spore suspension of Alternaria solani (the causal agent of tomato early blight) and incubated in a saturated atmosphere at 27° C. for 48 h, and then moved to a growth chamber at 20° C. for 5 days, after which time disease ratings were visually made.
as §2

Septoria tritici = assay: Test C: wheat leaf blotch, preventive spray on wheat seedlings, visual disease rating
From the text: as §1
as §3, with “Septoria” for “Puccinia recondite f. sp.”, “blotch)” for “rust)”, “48” for “24”, “and” for “and then”, “19 additional” for “7”
as §2

[3] = 200 ppm, 100 = 100% disease control, 0 = no control
[4] = 40 ppm (compound number followed by *)

Row | SMILES | Test A rating (% disease control) [1, 3] | Test F rating (% disease control) (Botrytis cinerea; [3]) | Test B rating (% disease control) [2, 3] | Test D rating (% disease control) (Septoria nodorum; [3]) | Test E rating (% disease control) (Alternaria solani; [3]) | Test C rating (% disease control) (Septoria tritici; [3]) | Test A rating (% disease control) [1, 4] | Test F rating (% disease control) (Botrytis cinerea; [4]) | Test B rating (% disease control) [2, 4] | Test D rating (% disease control) (Septoria nodorum; [4]) | Test E rating (% disease control) (Alternaria solani; [4]) | Test C rating (% disease control) (Septoria tritici; [4])
1 | COc1cc(OC)cc(-c2c(C3CCOCC3)cnc(C)c2-c2ccc(F)cc2)c1 [Compound 59] | 79% | 100% | 100% | 92% | 100% | 97% | – | – | – | – | – | –
2 | COc1cc(OC)cc(-c2c(-c3ccc(F)cc3)cnc(C)c2-c2c(F)cc(F)cc2F)c1 [Compound 93] | – | – | – | – | – | – | 96% | 98% | 91% | 0% | 21% | 93%
3 | COc1cc(OC)cc(-c2c(Cn3cc(C#N)cn3)cnc(C)c2-c2c(F)cc(F)cc2F)c1 [Compound 123] | – | – | – | – | – | – | 0% | 69% | 0% | 0% | 0% | 53%
4 | COc1cc(OC)c(Cl)c(-c2c(C(C)(C)O)cnc(C)c2-c2c(F)cc(F)cc2F)c1 [Compound 119] | – | – | – | – | – | – | 99% | 100% | 100% | 98% | 100% | 98%
5 | COc1cc(OC)cc(-c2c(C(C)C#N)cnc(C)c2-c2c(F)cc(F)cc2F)c1 (stereo not drawn) [Compound 125] | – | – | – | – | – | – | 96% | 100% | 99% | 90% | 99% | 96%
6 | COc1cc(OC)cc(-c2c(C(C)O)cnc(C)c2-c2c(F)cc(F)cc2F)c1 (stereo not drawn) [Compound 107] | 100% | 99% | 100% | 98% | 100% | 98% | – | – | – | – | – | –
7 | COc1cc(OC)cc(-c2c(C(C)=O)cnc(C)c2-c2c(F)cc(OC)cc2F)c1 [Compound 71] | 98% | 99% | 100% | 81% | 100% | 95% | – | – | – | – | – | –
8 | COc1cc(OC)cc(-c2c(-c3cnc(OC)nc3OC)cnc(C)c2-c2c(F)cc(F)cc2F)c1 [Compound 131] | – | – | – | – | – | – | 0% | 80% | 9% | 0% | 0% | 0%
9 | COc1cc(OC)cc(-c2c(COc3ccccc3)cnc(C)c2-c2c(F)cc(F)cc2F)c1 [Compound 109] | 98% | 92% | 97% | 0% | 0% | 97% | – | – | – | – | – | –
10 | COc1cc(OC)cc(-c2c(-c3ccccc3)cnc(C)c2-c2ccccc2F)c1 [Compound 86] | – | – | – | – | – | – | 96% | 92% | 98% | 0% | 31% | 93%
11 | COc1cc(OC)cc(-c2c(C(C)O)cnc(C)c2-c2c(F)ccc(OC)c2F)c1 (stereo not drawn) [Compound 116] | – | – | – | – | – | – | 94% | 99% | 89% | 0% | 99% | 95%
12 | CCC(O)(CC)c1cnc(C)c(-c2c(F)cc(F)cc2F)c1-c1cc(OC)cc(OC)c1 [Compound 98] | 86% | 93% | 92% | 0% | 9% | 92% | – | – | – | – | – | –
13 | COc1cc(OC)cc(-c2c(C(C)=NO)cnc(C)c2-c2c(F)cc(F)cc2F)c1 (single isomer, unassigned) [Compound 117] | – | – | – | – | – | – | 93% | 99% | 100% | 82% | 99% | 99%
14 | COc1cc(OC)cc(-c2c(-c3ccc(Cl)nc3)cnc(C)c2-c2c(F)cc(F)cc2F)c1 [Compound 127] | – | – | – | – | – | – | 90% | 99% | 97% | 0% | 0% | 99%
15 | COc1ccc(-c2c(C)ncc(C(C)(O)CO)c2-c2cc(OC)cc(OC)c2)cc1 (single isomer, unassigned) [Compound 85] | 43% | 96% | 61% | 0% | 0% | 43% | – | – | – | – | – | –
16 | COc1cc(OC)c(Cl)c(-c2c(C(C)=O)cnc(C)c2-c2c(F)cc(F)cc2F)c1 [Compound 118] | – | – | – | – | – | – | 100% | 100% | 100% | 0% | 99% | 96%
17 | Cc1nc(C#N)c(C)c(-c2ccc(Cl)cc2)c1-c1c(F)cccc1F [Compound 143] | – | – | – | – | – | – | 99% | 28% | 97% | 0% | 97% | 100%
18 | COc1ccc(-c2c(C)ncc(C(C)=O)c2-c2cc(OC)cc(OC)c2)cc1 [Compound 61] | 86% | 99% | 99% | 0% | 83% | 84% | – | – | – | – | – | –
19 | COc1cc(OC)cc(-c2c(-c3cccnc3)cnc(C)c2-c2c(F)cc(F)cc2F)c1 [Compound 128] | – | – | – | – | – | – | 81% | 99% | 99% | 90% | 94% | 100%
20 | COc1cc(OC)cc(-c2c(C(C)CO)cnc(C)c2-c2c(F)cc(OC)cc2F)c1 (stereo not drawn) [Compound 92] | – | – | – | – | – | – | 76% | 94% | 99% | 82% | 100% | 96%
21 | COc1cc(OC)cc(-c2c(-c3ccc(F)cc3)cnc(C)c2-c2ccc(F)cc2)c1 [Compound 88] | – | – | – | – | – | – | 58% | 99% | 53% | 0% | 0% | 77%
